# Columns and labels:
# Type in all cases: biochemical
# CaMKIV(h) = CaMKIV(h) (Homo sapiens, UniProt Q16566); assay: CaMKIV(h) kinase assay; settings: 3 μM; percent of control kinase activity
# Protocol: (§1) Six compounds (presumptive single agents) were tested against a panel of 50 kinases. The results are presented in Table 2; numbers for each kinase indicate the percent of control kinase activity in the presence of a 3μM concentration of the indicated agent.
# (§2) Agents that target two or more different kinases are useful in the methods of the invention as described elsewhere herein. Such compounds may be identified, and their effect on certain kinases may be identified, using the assays briefly described below in Examples 4-83. Each of these assays was carried out as described in Davies et al., Biochem. J., 351:95-105 (2000). All assays were carried out at 10 μM ATP unless otherwise noted.
# (§3) In a final reaction volume of 25 μl, CaMKIV (h) (5-10 mU) is incubated with 40 mM Hepes pH 7.4, 5 mM CaCl2, 30 μg/ml calmodulin, 30 μM […] (SEQ ID NO:11), 10 mM MgAcetate and [γ-^33P-ATP] (specific activity approx. 500 cpm/pmol, concentration as required). The reaction is initiated by the addition of Mg^2+ [γ-^33P-ATP]. After incubation for 40 minutes at room temperature, the reaction is stopped by the addition of 5 μl of a 3% phosphoric acid solution. 10 μl of the reaction is then spotted onto a P30 filtermat and washed three times for 5 minutes in 75 mM phosphoric acid and once in methanol prior to drying and scintillation counting.
# CDK1/cyclinB(h) = CDK1/cyclinB(h) (Homo sapiens, UniProt P06493); assay: CDK1/cyclinB(h) kinase assay; settings: for Inhibitory activity (% of control), CDK1/cyclinB(h): 3 μM, percent of control kinase activity
# Protocol: as §1, §2
# (§4) In a final reaction volume of 25 μl, CDK1/cyclinB (h) (5-10 mU) is incubated with 8 mM MOPS pH 7.0, 0.2 mM EDTA, 0.1 mg/ml histone H1, 10 mM MgAcetate and [γ-^33p-ATP] (specific activity approx. 500 cpm/pmol, concentration as required). The reaction is initiated by the addition of Mg^2+ [γ-33 P-ATP]. After incubation for 40 minutes at room temperature, the reaction is stopped by the addition of 5 μl of a 3% phosphoric acid solution. 10 μl of the reaction is then spotted onto a P30 filtermat and washed three times for 5 minutes in 75 mM phosphoric acid and once in methanol prior to drying and scintillation counting.
# CDK5/p35(h) = CDK5/p35(h) (Homo sapiens, UniProt Q00535); assay: CDK5/p35(h) kinase assay; settings: 3 μM; percent of control kinase activity
# Protocol: as §1, §2
# as §4, with “CDK5/p35” for “CDK1/cyclinB”, “[γ-^33P-ATP]” for “[γ-^33p-ATP]”, “[γ-^33P-ATP].” for “[γ-33 P-ATP].”
# CHK2(h) = CHK2(h) (Homo sapiens, UniProt O96017); assay: CHK2(h) kinase assay; settings: 3 μM; percent of control kinase activity
# Protocol: as §1, §2
# as §3, with “μl, CHK2” for “μl, CaMKIV”, “with 8” for “with 40”, “mM MOPS” for “mM Hepes”, “pH 7.0,0.2” for “pH 7.4, 5”, “mM EDTA, 200” for “mM CaCl2, 30 μg/ml calmodulin, 30”, “ID NO:5),” for “ID NO:11),”
# Lyn(h) = Lyn(h) (Homo sapiens, UniProt P07948); assay: Lyn(h) kinase assay; settings: 3 μM; percent of control kinase activity
# GSK3α(h) = GSK3α(h) (Homo sapiens, UniProt P49840); assay: GSK3α(h) kinase assay; settings: 3 μM; percent of control kinase activity
# Protocol: as §1, §2
# IGF-1R(h) = IGF-1R(h) (Homo sapiens, UniProt P08069); assay: IGF-1R(h) kinase assay; settings: 3 μM; percent of control kinase activity
# Protocol: as §1, §2
# as §3, with “μl, IGF-IR” for “μl, CaMKIV”, “with 50” for “with 40”, “mM Tris” for “mM Hepes”, “pH 7.5, 0.1” for “pH 7.4, 5”, “mM EGTA, 0.1 mM NaVanadate, 0.1% β-mercaptoethanol, 250” for “mM CaCl2, 30 μg/ml calmodulin, 30”, “ID NO:16), 10 mM MnCl2,” for “ID NO:11),”
# MAPK2(h) = MAPK2(h) (Homo sapiens, UniProt P28482); assay: MAPK2(h) kinase assay; settings: 3 μM; percent of control kinase activity
# Protocol: as §1, §2
# In a final reaction volume of 25 μl, MAPK2(h) (5-10 mU) is incubated with 25 mM Tris pH 7.5, 0.02 mM EGTA, 0.33 mg/ml myelin basic protein, 10 mM MgAcetate and [γ-^33P-ATP] (specific activity approx. 500 cpm/pmol, concentration as required). The reaction is initiated by the addition of Mg^2+ [γ-^33P-ATP]. After incubation for 40 minutes at room temperature, the reaction is stopped by the addition of 5 μl of a 3% phosphoric acid solution. 10 μl of the reaction is then spotted onto a P30 filtermat and washed three times for 5 minutes in 75 mM phosphoric acid and once in methanol prior to drying and scintillation counting.
# Chain of CHK2(h) (O96017 whole entry): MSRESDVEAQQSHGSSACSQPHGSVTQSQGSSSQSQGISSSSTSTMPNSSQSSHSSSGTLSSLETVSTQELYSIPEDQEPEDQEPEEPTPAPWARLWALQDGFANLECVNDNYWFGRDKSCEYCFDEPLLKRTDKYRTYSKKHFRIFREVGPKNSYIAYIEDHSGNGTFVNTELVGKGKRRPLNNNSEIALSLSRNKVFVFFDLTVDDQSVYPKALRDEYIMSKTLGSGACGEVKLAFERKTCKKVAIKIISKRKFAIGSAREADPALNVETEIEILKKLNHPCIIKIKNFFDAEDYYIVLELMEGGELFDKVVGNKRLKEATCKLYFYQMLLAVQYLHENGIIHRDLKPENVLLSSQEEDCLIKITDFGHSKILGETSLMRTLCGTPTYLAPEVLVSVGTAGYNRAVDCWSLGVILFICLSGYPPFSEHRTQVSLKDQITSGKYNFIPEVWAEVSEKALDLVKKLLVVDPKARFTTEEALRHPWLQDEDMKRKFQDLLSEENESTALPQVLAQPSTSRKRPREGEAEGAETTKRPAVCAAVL
# Chain of CDK5/p35(h) (Q00535 whole entry): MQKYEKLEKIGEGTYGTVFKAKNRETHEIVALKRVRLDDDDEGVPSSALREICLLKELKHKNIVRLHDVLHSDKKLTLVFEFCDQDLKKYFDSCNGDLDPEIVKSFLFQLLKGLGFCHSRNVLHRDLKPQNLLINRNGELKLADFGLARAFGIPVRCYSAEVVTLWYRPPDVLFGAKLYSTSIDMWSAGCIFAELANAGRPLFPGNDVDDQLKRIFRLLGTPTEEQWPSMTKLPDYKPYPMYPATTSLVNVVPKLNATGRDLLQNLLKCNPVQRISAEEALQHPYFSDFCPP
# Chain of CDK5/p35(h) (Q15078 whole entry partner): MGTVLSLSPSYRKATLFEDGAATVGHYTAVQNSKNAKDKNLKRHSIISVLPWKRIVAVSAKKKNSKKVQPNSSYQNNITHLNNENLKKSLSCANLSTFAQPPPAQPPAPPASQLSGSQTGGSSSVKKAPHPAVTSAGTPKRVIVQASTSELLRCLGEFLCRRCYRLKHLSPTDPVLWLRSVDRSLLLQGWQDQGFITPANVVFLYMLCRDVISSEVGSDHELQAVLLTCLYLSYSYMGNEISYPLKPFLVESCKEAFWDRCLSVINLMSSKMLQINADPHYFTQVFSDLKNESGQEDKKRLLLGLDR
# Chain of CDK1/cyclinB(h) (P06493 whole entry): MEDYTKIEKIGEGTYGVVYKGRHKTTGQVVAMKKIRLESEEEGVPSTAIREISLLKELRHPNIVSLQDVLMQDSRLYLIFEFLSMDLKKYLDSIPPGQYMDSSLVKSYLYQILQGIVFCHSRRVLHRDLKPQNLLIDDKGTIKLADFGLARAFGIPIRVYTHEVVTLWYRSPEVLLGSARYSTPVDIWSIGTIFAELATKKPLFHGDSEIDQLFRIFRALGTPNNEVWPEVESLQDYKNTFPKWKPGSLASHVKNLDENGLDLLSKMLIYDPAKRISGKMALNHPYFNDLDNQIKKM
# Chain of CDK1/cyclinB(h) (P14635 whole entry partner): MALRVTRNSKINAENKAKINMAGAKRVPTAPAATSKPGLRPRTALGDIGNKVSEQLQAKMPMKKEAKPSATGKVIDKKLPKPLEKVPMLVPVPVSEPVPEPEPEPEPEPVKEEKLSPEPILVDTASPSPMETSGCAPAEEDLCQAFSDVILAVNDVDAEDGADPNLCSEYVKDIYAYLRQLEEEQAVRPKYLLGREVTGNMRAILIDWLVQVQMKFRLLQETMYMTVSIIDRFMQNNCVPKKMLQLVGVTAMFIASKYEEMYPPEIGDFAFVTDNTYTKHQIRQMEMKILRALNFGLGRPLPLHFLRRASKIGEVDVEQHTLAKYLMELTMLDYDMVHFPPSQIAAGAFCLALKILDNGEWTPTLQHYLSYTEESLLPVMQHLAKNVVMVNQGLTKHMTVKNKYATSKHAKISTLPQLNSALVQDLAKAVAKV
# Chain of MAPK2(h) (P28482 whole entry): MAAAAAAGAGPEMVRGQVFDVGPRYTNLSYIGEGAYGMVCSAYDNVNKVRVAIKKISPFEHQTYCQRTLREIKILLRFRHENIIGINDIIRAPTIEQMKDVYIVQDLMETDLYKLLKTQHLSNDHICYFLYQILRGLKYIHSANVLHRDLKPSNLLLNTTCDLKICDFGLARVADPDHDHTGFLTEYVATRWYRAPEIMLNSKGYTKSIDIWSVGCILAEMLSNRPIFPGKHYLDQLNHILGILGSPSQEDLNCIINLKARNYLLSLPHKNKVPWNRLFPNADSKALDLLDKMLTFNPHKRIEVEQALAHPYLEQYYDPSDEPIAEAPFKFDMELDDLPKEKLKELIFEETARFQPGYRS
# Chain of GSK3α(h) (P49840 whole entry): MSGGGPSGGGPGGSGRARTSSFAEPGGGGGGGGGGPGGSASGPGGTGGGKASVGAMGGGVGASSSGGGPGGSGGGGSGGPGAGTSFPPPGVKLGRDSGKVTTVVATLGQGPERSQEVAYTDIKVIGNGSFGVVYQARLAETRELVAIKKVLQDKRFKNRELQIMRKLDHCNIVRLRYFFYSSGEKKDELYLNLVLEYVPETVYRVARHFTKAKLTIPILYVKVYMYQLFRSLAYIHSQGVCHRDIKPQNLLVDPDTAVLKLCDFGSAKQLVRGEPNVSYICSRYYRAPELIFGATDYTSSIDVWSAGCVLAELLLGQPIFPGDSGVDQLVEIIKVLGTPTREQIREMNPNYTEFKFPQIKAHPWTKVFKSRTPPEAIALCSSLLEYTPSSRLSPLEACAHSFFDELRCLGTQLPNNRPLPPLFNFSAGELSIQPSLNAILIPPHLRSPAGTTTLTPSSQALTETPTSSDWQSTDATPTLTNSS
# Chain of Lyn(h) (P07948 2-512 limits assumed): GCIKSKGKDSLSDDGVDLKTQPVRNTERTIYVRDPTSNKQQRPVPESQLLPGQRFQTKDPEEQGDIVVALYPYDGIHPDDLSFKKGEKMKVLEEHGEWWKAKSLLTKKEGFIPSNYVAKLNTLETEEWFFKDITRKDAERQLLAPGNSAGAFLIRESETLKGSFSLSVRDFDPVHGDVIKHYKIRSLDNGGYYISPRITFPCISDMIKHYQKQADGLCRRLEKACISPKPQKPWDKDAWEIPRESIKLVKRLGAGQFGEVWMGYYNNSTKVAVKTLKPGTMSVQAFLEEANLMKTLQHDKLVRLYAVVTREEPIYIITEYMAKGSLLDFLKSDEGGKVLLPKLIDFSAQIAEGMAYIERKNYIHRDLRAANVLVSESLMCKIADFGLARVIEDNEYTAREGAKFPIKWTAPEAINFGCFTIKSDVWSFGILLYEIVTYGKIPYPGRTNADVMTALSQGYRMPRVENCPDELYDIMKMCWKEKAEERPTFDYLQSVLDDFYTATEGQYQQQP
# Chain of IGF-1R(h) (P08069 31-1367): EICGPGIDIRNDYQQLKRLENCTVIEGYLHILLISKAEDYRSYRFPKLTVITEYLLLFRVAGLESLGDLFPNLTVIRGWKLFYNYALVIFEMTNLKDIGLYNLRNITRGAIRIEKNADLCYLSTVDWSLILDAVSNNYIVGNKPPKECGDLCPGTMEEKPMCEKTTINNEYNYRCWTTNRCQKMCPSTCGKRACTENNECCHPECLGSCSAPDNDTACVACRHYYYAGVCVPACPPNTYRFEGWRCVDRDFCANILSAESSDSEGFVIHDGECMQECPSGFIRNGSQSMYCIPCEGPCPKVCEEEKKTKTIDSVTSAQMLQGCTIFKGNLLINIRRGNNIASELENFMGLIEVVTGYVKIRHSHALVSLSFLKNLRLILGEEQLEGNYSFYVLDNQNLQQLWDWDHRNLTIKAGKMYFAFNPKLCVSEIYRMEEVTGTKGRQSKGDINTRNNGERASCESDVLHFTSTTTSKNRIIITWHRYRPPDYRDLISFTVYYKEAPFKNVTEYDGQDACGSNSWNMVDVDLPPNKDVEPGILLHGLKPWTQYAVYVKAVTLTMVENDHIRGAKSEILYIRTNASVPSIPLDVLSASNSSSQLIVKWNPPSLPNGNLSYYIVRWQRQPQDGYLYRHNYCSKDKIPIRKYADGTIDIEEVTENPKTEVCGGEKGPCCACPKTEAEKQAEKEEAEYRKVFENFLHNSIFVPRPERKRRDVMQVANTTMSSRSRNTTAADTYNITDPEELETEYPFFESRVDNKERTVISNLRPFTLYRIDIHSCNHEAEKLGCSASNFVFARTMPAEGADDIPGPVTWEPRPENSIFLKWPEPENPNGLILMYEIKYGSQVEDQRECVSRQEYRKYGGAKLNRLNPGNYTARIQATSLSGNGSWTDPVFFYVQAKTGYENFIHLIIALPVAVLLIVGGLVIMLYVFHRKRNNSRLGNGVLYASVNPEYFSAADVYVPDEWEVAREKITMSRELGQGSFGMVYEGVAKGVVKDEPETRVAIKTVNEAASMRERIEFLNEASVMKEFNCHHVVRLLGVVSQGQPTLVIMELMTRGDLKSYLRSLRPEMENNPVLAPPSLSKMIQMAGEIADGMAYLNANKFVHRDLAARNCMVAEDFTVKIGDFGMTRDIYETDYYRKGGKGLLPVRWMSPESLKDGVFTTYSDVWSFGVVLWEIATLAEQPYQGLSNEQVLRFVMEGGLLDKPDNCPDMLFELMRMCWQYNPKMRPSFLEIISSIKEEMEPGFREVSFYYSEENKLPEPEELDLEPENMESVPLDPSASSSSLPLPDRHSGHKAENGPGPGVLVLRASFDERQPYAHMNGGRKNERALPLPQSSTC
Structure (SMILES),"Inhibitory activity (% of control), CaMKIV(h) (CaMKIV(h))","Inhibitory activity (% of control), CDK1/cyclinB(h) (CDK1/cyclinB(h))","Inhibitory activity (% of control), CDK5/p35(h) (CDK5/p35(h))","Inhibitory activity (% of control), CHK2(h) (CHK2(h))","Inhibitory activity (% of control), Lyn(h) (Lyn(h))","Inhibitory activity (% of control), GSK3α(h) (GSK3α(h))","Inhibitory activity (% of control), IGF-1R(h) (IGF-1R(h))","Inhibitory activity (% of control), MAPK2(h) (MAPK2(h))","inhibitory activity against CDK1, in words (CDK1/cyclinB(h); summary of Table 2)"
"COc1ccc2cc(-c3n[nH]c4ccc(-c5n[nH]c(CN6CCOCC6)n5)cc34)ccc2c1 [CC001, 3-(6-Methoxynaphthalen-2-yl)-5-(5-Morpholin-4-Ylmethyl-1H-[1,2,4]Triazol-3-yl)-1H-Indazole]",82 % of control,2 % of control,7 % of control,2 % of control,5 % of control,15 % of control,92 % of control,0 % of control,–
"CC(C)Cc1nc(-c2ccc3[nH]nc(-c4ccc5cc(OCCN6CCCC6)ccc5c4)c3c2)n[nH]1 [CC002, 5-(5-Isobutyl-1H-[1,2,4]Triazol-3-yl)-3-[6-(2-Pyrrolidin-1-yl-Ethoxy)-Naphthalen-2-yl]-1H-Indazole]",60 % of control,2 % of control,16 % of control,1 % of control,2 % of control,38 % of control,55 % of control,2 % of control,–
"CC(C)(C)Cc1nc(-c2ccc3[nH]nc(-c4ccc5cc(OCc6ccccn6)ccc5c4)c3c2)n[nH]1 [CC004, 5-[5-(2,2-Dimethyl-propyl)-1H-[1,2,4]triazol-3-yl]-3-[6-(pyridine-2-ylmethoxy)-naphthalen-2-yl]-1H-indazole]",80 % of control,1 % of control,10 % of control,7 % of control,62 % of control,65 % of control,96 % of control,1 % of control,good inhibitory activity
"CCN1CCC[C@H]1COc1ccc2cc(-c3n[nH]c4ccc(-c5nc(CC(C)(C)C)n[nH]5)cc34)ccc2c1 [CC005, 2-[((2s)-1-ethylpyrrolidin-2-yl)methoxy]-6-{5-[3-(2,2-Dimethylpropyl)(1H-1,2,4,-triazol-5-yl)](1H-indazol-3-yl)}naphthalene]",22 % of control,1 % of control,8 % of control,1 % of control,2 % of control,35 % of control,58 % of control,2 % of control,–

# Further lines, results first:
"Inhibitory activity (% of control), CaMKIV(h) (CaMKIV(h))","Inhibitory activity (% of control), CDK1/cyclinB(h) (CDK1/cyclinB(h))","Inhibitory activity (% of control), CDK5/p35(h) (CDK5/p35(h))","Inhibitory activity (% of control), CHK2(h) (CHK2(h))","Inhibitory activity (% of control), Lyn(h) (Lyn(h))","Inhibitory activity (% of control), GSK3α(h) (GSK3α(h))","Inhibitory activity (% of control), IGF-1R(h) (IGF-1R(h))","Inhibitory activity (% of control), MAPK2(h) (MAPK2(h))","inhibitory activity against CDK1, in words (CDK1/cyclinB(h); summary of Table 2)",Structure (SMILES)
95 % of control,3 % of control,12 % of control,20 % of control,23 % of control,38 % of control,65 % of control,3 % of control,–,"Fc1ccc(-c2n[nH]c3ccc(-c4n[nH]c(C5CCCC5)n4)cc23)cc1 [CC006, 5-(5-Cyclopentyl-1H-[1,2,4]triazol-3-yl)-3-(4-fluoro-phenyl)-1H-indazole, reference compound]"
86 % of control,26 % of control,50 % of control,6 % of control,61 % of control,18 % of control,88 % of control,3 % of control,–,"O=C(NC1CCCC1)c1cccc(-c2n[nH]c3ccc(-c4nc[nH]n4)cc23)c1 [CC007, 3-(5-(1H-1,2,4-triazol-3-yl)(1H-indazol-3-yl))phenyl-N-cyclopentylcarboxamide, reference compound]"

# — patent US20050107386A1, “Methods of treating diseases and disorders by targeting multiple kinases” (priority 2003, published 2005)
